Experimental data taken from patent US11931424B2, “Combination MCL-1 inhibitors with anti-body drug conjugates” (Gilead Sciences, Inc., priority 2021, dated 2024).

System: panel of breast cancer cell lines
Experiment: Compound A with targeted agents and chemotherapies, 72-hour in vitro proliferation assays
Assay type: cell-based
Conditions: compound A × partner, 72-hour proliferation

## Cc1c(-c2ccc(N3CCc4cccc(C(=O)Nc5nc6ccccc6s5)c4C3)nc2C(=O)O)cnn1CC12CC3CC(CC(C3)C1)C2 [Compound A-1331852]
BT-20 cell line
  Best CI: 0.01
  Bliss Volume: 68.96
  HSA volume: 70.29
  Loewe Volume: 70.26
  Synergy Score: 162.62
CAL-51 cell line
  Best CI: 0.01
  Bliss Volume: 56.43
  HSA volume: 55.36
  Loewe Volume: 56.58
  Synergy Score: 118.96
CAL-85-1 cell line
  Best CI: 0.01
  Bliss Volume: 49.08
  HSA volume: 54.69
  Loewe Volume: 53.39
  Synergy Score: 114.90
CAL-120 cell line
  Best CI: 0.04
  Bliss Volume: 28.08
  HSA volume: 26.51
  Loewe Volume: 28.14
  Synergy Score: 55.20
CAL-148 cell line
  Best CI: 0.01
  Bliss Volume: 51.23
  HSA volume: 55.15
  Loewe Volume: 56.80
  Synergy Score: 129.75
CAMA-1 cell line
  Best CI: 0.02
  Bliss Volume: 41.48
  HSA volume: 38.74
  Loewe Volume: 40.35
  Synergy Score: 89.71
DU-4475 cell line
  Best CI: 0.41
  Bliss Volume: 34.50
  HSA volume: 31.29
  Loewe Volume: 31.62
  Synergy Score: 49.81
EVSA-T cell line
  Best CI: 0.11
  Bliss Volume: 31.72
  HSA volume: 28.03
  Loewe Volume: 29.10
  Synergy Score: 63.11
HCC38
  Best CI: 0.03
  Bliss Volume: 36.56
  HSA volume: 31.80
  Loewe Volume: 30.82
  Synergy Score: 60.48
HCC70
  Best CI: 0.00
  Bliss Volume: 73.73
  HSA volume: 74.12
  Loewe Volume: 74.78
  Synergy Score: 173.58
HCC1143 cell line
  Best CI: 0.00
  Bliss Volume: 53.10
  HSA volume: 51.70
  Loewe Volume: 52.79
  Synergy Score: 89.24
HCC1569
  Best CI: 0.01
  Bliss Volume: 43.44
  HSA volume: 40.52
  Loewe Volume: 40.04
  Synergy Score: 86.99
HCC1806
  Best CI: 0.00
  Bliss Volume: 83.58
  HSA volume: 85.67
  Loewe Volume: 85.91
  Synergy Score: 183.39
HCC1937
  Best CI: 0.00
  Bliss Volume: 69.83
  HSA volume: 71.58
  Loewe Volume: 71.06
  Synergy Score: 157.43
HCC1954
  Best CI: 0.01
  Bliss Volume: 53.64
  HSA volume: 55.54
  Loewe Volume: 55.53
  Synergy Score: 121.26
HCC2218
  Best CI: 0.01
  Bliss Volume: 47.29
  HSA volume: 47.84
  Loewe Volume: 46.72
  Synergy Score: 99.88
HDQ-P1
  Best CI: 0.01
  Bliss Volume: 58.35
  HSA volume: 61.13
  Loewe Volume: 60.82
  Synergy Score: 132.76
HMC-1-8
  Best CI: 0.11
  Bliss Volume: 21.81
  HSA volume: 19.39
  Loewe Volume: 20.77
  Synergy Score: 39.01
JIMT-1
  Best CI: 0.01
  Bliss Volume: 57.07
  HSA volume: 57.74
  Loewe Volume: 57.21
  Synergy Score: 126.70
KPL-1
  Best CI: 0.03
  Bliss Volume: 26.84
  HSA volume: 25.88
  Loewe Volume: 26.65
  Synergy Score: 36.44
